In paper PMC8838936, “Simultaneous Determination of Seven Lipophilic and Hydrophilic Components in Salvia miltiorrhiza Bunge by LC-MS/MS Method and Its Application to a Transport Study in a Blood-Brain-Barrier Cell Model” (Molecules, 2022):

Columns and labels:
[1] = system: hBMEC cell monolayer (BBB cell model); assay: Transport study in a BBB cell model (bidirectional transwell permeability); assay type: in vitro ADME, Human; details: BBB cell model, within 120 min
Protocol: (§1) The hBMECs cells were seeded at a density of 3 × 10^5 cells per well on the transwell plates in EMC. Apical side volumes were 0.5 mL, and the medium was changed every day. Basal side volumes were 1.5 mL, and the medium was changed every other day. The medium was changed until confluent monolayers were formed. […] TEER provides information on ion current resistance across cell monolayers related to the integrity of tight junctions between cells. When the TEER reached the maximum value, the cell monolayer was used for the transport assay.
(§2) The permeability experiments were carried out bi-directionally, with working solutions containing one test component, TSI (1.25 μg/mL), DTSI (0.15 μg/mL), CTS (1.25 μg/mL), CFA (10 μg/mL), PAL (10 μg/mL), and PCTA (20 μg/mL). Aliquots of the […] compartment were collected after several time points (15, 30, 60, and 120 min) and replaced with drug-free assay buffer. The transwell plates were incubated on an orbital shaker at 37 °C for the entire experimental time. All experiments were performed in triplicate, and withdrawn samples were stored in −80 °C fridge before LC-MS/MS analysis.
(§3) For the BBB cell model, the apparent permeability coefficient, Papp in apical-to-basolateral (AP-BL) or basolateral-to-apical (BL-AP) direction, and efflux rate of each component were subsequently calculated according to the following equation: Papp = {dQ/dt} × {1/ (A × C0)},(1) where Q is the accumulation quantity of the compound in the receiver side (μg), dQ /dt is the rate of appearance of the compound in the receiver side (μg /s), C0 is the initial concentration in the donor side […], and A is the surface area of the membrane insert (cm^2). Furthermore, efflux ratios (ER) were calculated according to the following equation: ER = Papp (BL-AP)/Papp (AP-BL),(2) where Papp (BL-AP) and Papp (AP-BL) are the Papp values in the direction basolateral-to-apical and apical-to-basolateral, respectively.

[2] = as above; assay type: in vitro ADME, Human; details: human; for efflux ratio at 120 min: ER = Papp (BL-AP)/Papp (AP-BL), BBB cell model; for Papp B→A at 120 min: hBMEC monolayer on transwell, basolateral-to-apical, within 120 min, 37 °C, Mean ± SD, n = 3
Protocol: as §1, §2, §3

[3] = system: endothelial cell monolayers; set-up: method as in PMID 17504224; details: facilitated efflux from the abluminal side to luminal side; cited from earlier work
BBB = system: BBB; set-up: method as in PMID 26683637; details: cited from earlier work
[4] = Stability of analytes in HBSS (autosampler 24 h; −80 °C 15 days); assay type: physicochemical; details: HBSS system
Protocol: Stability was evaluated by analyzing LQC, MQC, and HQC concentrations at autosampler for 24 h and −80 °C for 15 days with five replicates. Stability was expressed in terms of accuracy (RE) and coefficient of variation (RSD). The samples were considered stable if accuracy (RE) was within ±15% of the nominal values and precision (RSD) was less than 15%.

## O=C(O)/C=C/c1ccc(O)c(O)c1 [CFA, caffeic acid]
[1]
  Absorption in the BBB model (class by Papp (AP-BL)): easily absorbed
[2]
  efflux ratio at 120 min: 1.05
  Papp B→A at 120 min: 225 nm/s

## C[C@H]1COC2=C1C(=O)C(=O)c1c2ccc2c1CCCC2(C)C [CTS, cryptotanshinone]
[1]
  Absorption in the BBB model (class by Papp (AP-BL)): moderate absorption
[2]
  efflux ratio at 120 min: 1.03
  Papp B→A at 120 min: 51.2 nm/s
[3]
  Transport of CTS in endothelial cell monolayers: polarized transport

## Cc1cccc2c3c(ccc12)C1=C(C(=O)C3=O)[C@@H](C)CO1 [DTS I, dihydrotanshinone I]
[1]
  Absorption in the BBB model (class by Papp (AP-BL)): moderate absorption
[2]
  efflux ratio at 120 min: 0.779
  Papp B→A at 120 min: 36.2 nm/s

## O=Cc1ccc(O)c(O)c1 [PAL, protocatechuic aldehyde]
[1]
  Absorption in the BBB model (class by Papp (AP-BL)): easily absorbed
[2]
  efflux ratio at 120 min: 0.805
  Papp B→A at 120 min: 122 nm/s

## O=C(O)c1ccc(O)c(O)c1 [PCTA, protocatechuic acid]
[1]
  Absorption in the BBB model (class by Papp (AP-BL)): easily absorbed
[2]
  efflux ratio at 120 min: 0.946
  Papp B→A at 120 min: 413 nm/s

## Cc1coc2c1C(=O)C(=O)c1c-2ccc2c1CCCC2(C)C [TS IIA, tanshinone IIA]
BBB
  Effect on disruption of the BBB: suppress disruption of the BBB
[1]
  Absorption in the BBB model (class by Papp (AP-BL)): difficult to be absorbed
[2]
  efflux ratio at 120 min: 0.673
  Papp B→A at 120 min: 0.253 nm/s

## CCC(C)(C)C(=O)O[C@H]1C[C@@H](C)C=C2C=C[C@H](C)[C@H](CC[C@@H]3C[C@@H](O)CC(=O)O3)[C@H]21 [simvastatin]
[4]
  Stability in HBSS (in words): very unstable
